Experimental data as given in ChEMBL document CHEMBL4699434, “Fenretinide binding to the lysosomal protein saposin D alters ceramide solubilization and hydrolysis” (RSC Med Chem, 2020).
Active and inactive are the calls of the source. The rule behind the calls is not given here.

Legend:
Prosaposin [1] = biological target: T1, Prosaposin (Homo sapiens, UniProt P07602); experiment: Binding affinity to human saposin D (1 to 81 residues) expressed in Escherichia coli at 25 degree C by electronic absorption spectroscopy
T1 sequence (P07602 whole entry): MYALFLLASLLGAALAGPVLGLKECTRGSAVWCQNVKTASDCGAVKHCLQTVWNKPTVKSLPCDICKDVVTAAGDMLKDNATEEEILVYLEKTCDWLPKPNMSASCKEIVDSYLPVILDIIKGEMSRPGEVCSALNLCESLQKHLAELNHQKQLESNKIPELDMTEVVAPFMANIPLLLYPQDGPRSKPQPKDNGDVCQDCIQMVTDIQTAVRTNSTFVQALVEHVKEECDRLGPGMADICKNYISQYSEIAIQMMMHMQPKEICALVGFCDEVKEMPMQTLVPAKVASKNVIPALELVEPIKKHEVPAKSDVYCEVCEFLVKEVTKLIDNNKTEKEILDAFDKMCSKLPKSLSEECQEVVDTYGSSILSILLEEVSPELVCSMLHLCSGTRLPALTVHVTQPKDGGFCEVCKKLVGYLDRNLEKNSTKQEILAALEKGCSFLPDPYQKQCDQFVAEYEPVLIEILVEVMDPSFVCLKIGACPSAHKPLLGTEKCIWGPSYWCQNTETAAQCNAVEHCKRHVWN

[2] = biological target: T2, Prosaposin (Homo sapiens) (UniProt P07602); experiment: Binding affinity to human saposin D (1 to 81 residues) expressed in Escherichia coli assessed as decrease in BODIPY-TR labeled ceramide solubilization in sodium phosphate buffer measured after 30 mins by fluorescence assay
T2 sequence (whole entry): T1 sequence (P07602 whole entry)

[3] = biological target: T2, Prosaposin (Homo sapiens); experiment: Binding affinity to human saposin D (1 to 81 residues) expressed in Escherichia coli assessed as inhibition of ceramide hydrolysis preincubated for 30 mins followed by ceramide addition measured after 72 hrs by HPLC analysis
[4] = biological target: T3, Acid ceramidase (Homo sapiens) (UniProt Q13510); experiment: Inhibition of acid ceramidase (unknown origin) assessed as inhibition of ceramide hydrolysis preincubated for 30 mins followed by ceramide addition measured after 72 hrs by HPLC analysis
T3 sequence (whole entry): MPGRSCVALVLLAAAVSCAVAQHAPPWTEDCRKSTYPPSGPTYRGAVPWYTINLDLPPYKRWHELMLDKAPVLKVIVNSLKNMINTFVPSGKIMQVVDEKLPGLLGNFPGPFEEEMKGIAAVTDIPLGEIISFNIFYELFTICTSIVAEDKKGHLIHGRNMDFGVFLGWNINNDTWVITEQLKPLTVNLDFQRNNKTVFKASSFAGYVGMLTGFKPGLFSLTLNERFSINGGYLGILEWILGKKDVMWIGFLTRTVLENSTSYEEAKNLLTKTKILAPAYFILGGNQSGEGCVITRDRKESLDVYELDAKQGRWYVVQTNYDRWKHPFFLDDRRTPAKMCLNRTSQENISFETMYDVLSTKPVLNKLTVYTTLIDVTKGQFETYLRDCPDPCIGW

[5] = biological target: T2, Prosaposin (Homo sapiens); experiment: Binding affinity to human saposin D (1 to 81 residues) expressed in Escherichia coli assessed as association constant at equilibrium at 25 degree C by electronic absorption spectroscopy
[6] = biological target: T2, Prosaposin (Homo sapiens); experiment: Binding affinity to human saposin D (1 to 81 residues) expressed in Escherichia coli complexed with CerPO4 assessed as decrease in ceramide hydrolysis using ceramide as counter-substrate preincubated the protein-ceramide complex for 30 mins measured after 24 hrs in presence of acid ceramidase by HPLC analysis
[7] = biological target: T2, Prosaposin (Homo sapiens); experiment: Binding affinity to human saposin D (1 to 81 residues) expressed in Escherichia coli assessed as association constant at equilibrium at 25 degree C by fluorescence quenching spectroscopy
Prosaposin [8] = biological target: T1, Prosaposin; experiment: Binding affinity to human saposin D (1 to 81 residues) expressed in Escherichia coli at 25 degree C by fluorescence quenching spectroscopy
[9] = biological target: T2, Prosaposin (Homo sapiens); experiment: Binding affinity to human saposin D (1 to 81 residues) expressed in Escherichia coli complexed with CerOH assessed as decrease in ceramide hydrolysis using ceramide as counter-substrate measured after 24 hrs in presence of acid ceramidase by fluorescence quenching spectroscopy

Kd (Prosaposin [1]): 6.9 µM
Activity [2]: inactive
inhibition [3]: Active
inhibition [4]: Active
Ka [5]: 1.45 10^5/M
Activity [6]: Active
Ka [7]: 1.45 10^5/M
Kd (Prosaposin [8]): 6.9 µM
Activity [9]: Active
SMILES: CC1=C(/C=C/C(C)=C/C=C/C(C)=C/C(=O)Nc2ccc(O)cc2)C(C)(C)CCC1 [FENRETINIDE]
